Measured values published in patent US6696447B2, “Hydroxyphenyl-piperazinyl-methyl-benzamide derivatives for the treatment of pain” (AstraZeneca AB, priority 2000, dated 2004).

Tests used:
Type in all cases: biochemical
[1] = target: T1, human δ receptor (HDELTA) (Homo sapiens, UniProt P41143); test: GTP[γ]35S binding functional assay, HEK-293S membranes expressing cloned human opioid receptor (HDELTA)
T1 construct: expressed in transfected cells; host or cells: human 293S (HEK-293S) cells, geneticin-selected
Method: A. Human 293S cells expressing cloned human μ, δ, and κ receptors and neomycin resistance were grown in suspension at 37° C. and 5% CO2 in shaker flasks containing calcium-free DMEM10% FBS, 5% BCS, 0.1% Pluronic F-68, and 600 μg/ml geneticin.
Cells were pelleted and resuspended in lysis buffer (50 mM Tris, pH 7.0, 2.5 mM EDTA, with PMSF added just prior to use to 0.1 mM from a 0.1 M stock in ethanol), incubated on ice for 15 min, then homogenized with a polytron for 30 sec. The suspension was spun at 1000 g (max) for 10 min at 4° C. The supernatant was saved on ice and the pellets resuspended and spun as before. The supernatants from both spins were combined and spun at 46,000 g(max) for 30 min. The pellets were resuspended in cold Tris buffer (50 mM Tris/Ci, pH 7.0) and spun again. The final pellets were resuspended in membrane buffer (50 mM Tris, 0.32 M sucrose, pH 7.0). Aliquots (1 ml) in polypropylene tubes were frozen in dry ice/ethanol and stored at −70° C. until use. The protein concentrations were determined by a modified Lowry assay with sodium dodecyl sulfate.
(§1) The agonist activity of the compounds is measured by determining the degree to which the compounds receptor complex activates the binding of GTP to G-proteins to which the receptors are coupled. In the GTP binding assay, GTP[γ]^35S is combined with test compounds and membranes from HEK-293S cells expressing the cloned human opioid receptors or from homogenised rat and mouse brain. Agonists stimulate GTP[γ]^35 S binding in these membranes. The EC50 and Emax values of compounds are determined from dose-response curves. Right shifts of the dose response curve by the delta antagonist naltrindole are performed to verify that agonist activity is mediated through delta receptors.

[2] = target: T2, delta receptors, rat brain membranes (Rattus norvegicus, UniProt P33533); test: GTP[γ]35S binding functional assay, homogenised rat brain
T2 construct: from tissue; host or cells: rat brain homogenate
Method: (§2) B. Mouse and rat brains were weighed and rinsed in ice-cold PBS (containing 2.5 mM EDTA, pH 7.4). The brains were homogenized with a polytron for 15 sec (mouse) or 30 sec (rat) in ice-cold lysis buffer (50 mM Tris, pH 7.0, 2.5 mM EDTA, with phenylmethylsulfonyl fluoride added just prior use to […] from a 0.5M stock in DMSO:ethanol).
as §1

[3] = target: T3, delta receptors, mouse brain membranes (Mus musculus, UniProt P32300); test: GTP[γ]35S binding functional assay, homogenised mouse brain
T3 construct: from tissue; host or cells: mouse brain homogenate
Method: as §2, §1

T1 sequence (P41143 whole entry): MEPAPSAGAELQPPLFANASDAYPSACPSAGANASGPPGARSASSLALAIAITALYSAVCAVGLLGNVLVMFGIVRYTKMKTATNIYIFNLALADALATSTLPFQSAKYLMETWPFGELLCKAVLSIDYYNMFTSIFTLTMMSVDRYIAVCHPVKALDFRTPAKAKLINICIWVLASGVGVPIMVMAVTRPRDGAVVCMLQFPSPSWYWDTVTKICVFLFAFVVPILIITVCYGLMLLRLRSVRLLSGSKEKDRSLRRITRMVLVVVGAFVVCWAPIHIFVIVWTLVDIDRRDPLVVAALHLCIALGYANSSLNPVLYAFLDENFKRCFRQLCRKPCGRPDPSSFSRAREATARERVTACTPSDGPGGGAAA
T2 sequence (P33533 whole entry): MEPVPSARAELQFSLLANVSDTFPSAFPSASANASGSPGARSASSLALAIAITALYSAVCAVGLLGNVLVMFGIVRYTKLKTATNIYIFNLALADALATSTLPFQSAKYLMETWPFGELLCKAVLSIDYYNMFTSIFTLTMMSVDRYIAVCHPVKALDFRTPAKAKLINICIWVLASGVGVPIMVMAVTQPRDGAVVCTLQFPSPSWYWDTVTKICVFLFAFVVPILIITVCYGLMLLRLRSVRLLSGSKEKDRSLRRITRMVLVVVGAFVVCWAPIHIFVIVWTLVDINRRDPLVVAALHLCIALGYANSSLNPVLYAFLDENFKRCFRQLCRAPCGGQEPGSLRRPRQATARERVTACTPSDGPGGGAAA
T3 sequence (P32300 whole entry): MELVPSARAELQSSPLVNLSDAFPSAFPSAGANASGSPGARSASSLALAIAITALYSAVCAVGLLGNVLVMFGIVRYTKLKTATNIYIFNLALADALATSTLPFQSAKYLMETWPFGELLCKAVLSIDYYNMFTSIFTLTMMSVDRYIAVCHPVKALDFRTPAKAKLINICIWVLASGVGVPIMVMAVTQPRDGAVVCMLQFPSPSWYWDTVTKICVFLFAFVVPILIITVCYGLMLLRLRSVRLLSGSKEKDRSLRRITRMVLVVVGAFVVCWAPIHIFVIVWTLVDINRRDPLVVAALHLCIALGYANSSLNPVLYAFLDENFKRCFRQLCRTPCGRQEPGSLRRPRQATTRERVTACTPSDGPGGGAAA

SMILES	Emax [1]	Emax [2]	Emax [3]
CCN(CC)C(=O)c1ccc(C(c2cccc(O)c2)N2CCN(Cc3ccco3)CC2)cc1 (stereo not drawn) [Example 1, N,N-diethyl-4-[[4-(2-furylmethyl)-1-piperazinyl](3-hydroxyphenyl)methyl]benzamide]	94.8%	130%	113%
CCN(CC)C(=O)c1ccc(C(c2cccc(O)c2)N2CCN(Cc3cccs3)CC2)cc1 (stereo not drawn) [Example 2, N,N-diethyl-4-{(3-hydroxyphenyl)[4-(2-thienylmethyl)-1-piperazinyl]methyl}benzamide]	105%	120%	118%
CCN(CC)C(=O)c1ccc(C(c2cccc(O)c2)N2CCN(Cc3ccsc3)CC2)cc1 (stereo not drawn) [Example 3, N,N-diethyl-4-{(3-hydroxyphenyl)[4-(3-thienylmethyl)-1-piperazinyl]methyl}benzamide]	114%	128%	122%
